One series relates to TtgR. The experiment in a line: TtgR sensor GFP response of MAGE-engineered E. coli MG1655 mutants to exogenously applied naringenin. The series is classed as cell-based. The following applies: naringenin 0, 31, 63 or 125 μM; three MAGE-engineered E. coli MG1655 clones, medium-copy plasmid with TtgR and gfp. From the text: The three clones were transformed with a medium-copy plasmid harboring TtgR and gfp under the control of an engineered ttgAp promoter. […] No naringenin pathway enzymes were present during these experiments, eliminating any interference by endogenously produced naringenin. The variation was not resolved upon transferring the sensor system to the genome (not shown) or switching to a high-copy sensor plasmid (FIG. 2A).

Series [1] relates to E. coli BW25113 Δptsl::kanR pSENSORGFP-PtsI sensor strain. The experiment in a line: GFP fluorescence of sensor cells encapsulated in droplets with naringenin (microscope). The series is classed as cell-based. The following applies: 500 μM naringenin with sensor cells; 33° C., 48 hours; FIG. 5d. The source says:
FIGS. 4A-B establish co-culturing of producer cells and sensor cells as a viable strategy for screening. Sensor cells were engineered in an E. coli BW25113 Δptsl::kanR background, which is unable to grow on glucose as a sole carbon source. The glucose transporter ptsl and fluorescence reporter gfp were expressed co-cistronically under the control of a TtgR-regulated promoter on the plasmid pSENSORGFP-PtsI, such that growth and the magnitude of GFP signal are naringenin-dependent. […] Following incubation, the water-in-oil droplets were encapsulated in another aqueous phase, generating water-in-oil-in-water droplets, which were observed on a standard fluorescence activated cell sorter (FACS). […]
2E6 pNARnull, 2E6 pNAR^low, 2E6 pNARhigh, were co-cultured with the E. coli BW25113 Δptsl::kanR pSENSORGFP-PtsI sensor strain described in Example 3. […] Double emulsions were analyzed under the microscope prior to FACS analysis. […]

Series [2] is described as follows: Diffusion between droplets: naringenin droplets co-incubated with sensor cell droplets. Format: physicochemical. The conditions noted are these: droplets with 500 μM naringenin mixed with sensor cell droplets; 1% Ran Fluorosurfactant in HFE7500; FIG. 6. Here is the method:
FIG. 6 is an image showing fluorescence of two sets of droplet co-incubated for 24 hours. The first set of droplets contained 500 μM naringenin and the second set of droplets contained naringenin sensor cells. If diffusion was occurring between the droplets, the sensor cells would become fluorescent over the 24 hour period.
2E6 pNARnull, 2E6 pNAR^low, 2E6 pNARhigh, were co-cultured with the E. coli BW25113 Δptsl::kanR pSENSORGFP-PtsI sensor strain described in Example 3. The four cultures were grown overnight in LB medium, subdiluted 1 to 100 in minimal medium supplemented with the appropriate antibiotic and then grown into log phase. Once in log phase, the E. coli were rinsed 3× with 1× filtered M9 salts and then diluted to an OD600 of 1.0. The 2E6 strains were diluted to an OD600 of 0.01 to ensure that a single producer strain is present in each encapsulated droplet and the sensor cells were diluted to 0.1 to ensure that each droplet gets at least 5 sensor cells. Six sets of droplets were produced, (1) sensor cell only, (2) sensor cell with 500 μM naringenin, (3) 2E6 pNARhigh with sensor cell and 1 mM IPTG, (4) 2E6 pNARnull with sensor cell and 1 mM IPTG, (5), 2E6 pNARlow with sensor cell and 1 mM IPTG, and (6) naringenin only droplets. […] Double emulsions were analyzed under the microscope prior to FACS analysis. […]

Regarding `O=C1C[C@@H](c2ccc(O)cc2)Oc2cc(O)cc(O)c21` [naringenin], the “GFP expression induced in TtgR sensor strains” value in the series with TtgR is on record as “induced different levels of GFP expression”. Also, the “fluorescence of positive control droplets” value in series [1] is listed as “very fluorescent”. Besides, in series [2], the diffusion between droplets entry is reported as “no diffusion between droplets”.

Source of the values: US20200399632A1, “SENSOR SYSTEMS” (enEvolv, Inc., priority 2018, published 2020).
